Assay results taken from patent US4381304A, “4,9-Dihydro-4,9-dioxo-1H-cyclohepta[b]pyridine derivatives” (Ayerst, McKenna & Harrison, Inc., priority 1981, dated 1983).
Where two headings read alike, the source gives them in different places.

How the values were obtained:
[1] = stability of the salt in the presence of acid; assay type: physicochemical
Protocol: A mixture of 3-{[N-(methoxycarbonylmethyl)-N-methylamino]carbonyl}-4,9-dihydro-4,9-dioxo-1H-cyclohepta[b]pyridine-1-acetic acid ethyl ester (2.36 g, described in example 6) and 2% aqueous sodium hydroxide (w/v, 25 ml) was stirred at 25° C. for 4 hr. Evaporation of the reaction mixture gave the title disodium salt. […] The salt had mp>250° C.; nmr (D2 O) δ3.0 (d, 3H), 4.0 (d, 2H), 4.7 (s, 2H), 6.8-8.3 (m, 5H); ir (Nujol*) 3400, 3150, 1610 cm^-1 (with inflections at 1625 and 1585 cm^-1); uv λ max (MeOH) 340 nm (ε7,390), 237 (13,000); Anal Calcd for C16 H12 N2 O7 Na2.3H2 O: C, 43.24% H, 4.08% […]; Found: C, 42.76% H, 3.57%, N, 7.18%.

aldose reductase [2] = conditions: literature report; cited from earlier work
[3] = system: diabetic complications such as diabetic cataracts, neuropathy, nephropathy and retinopathy; conditions: literature report (U.S. Pat. No. 3,821,383); cited from earlier work
aldose reductase [4] = target: T1, aldose reductase (Bos taurus, UniProt P16116); assay: in vitro aldose reductase inhibition (modified Hayman and Kinoshita procedure); assay type: biochemical, bovine (lens); conditions: for inhibition at 10 µM: read-out: % Inhibition at Different Molar Concentrations (in vitro), 10^-5; for inhibition at 1 µM: 10^-6 molar, read-out: % Inhibition at Different Molar Concentrations (in vitro), 10^-6; for inhibition at 0.1 µM: 10^-7 molar, read-out: % Inhibition at Different Molar Concentrations (in vitro), 10^-7
T1 construct: preparation of the enzyme from bovine lens; from tissue; host or cells: bovine lens
From the text: In the present case the procedure of Hayman and Kinoshita is modified in that the final chromatography step is omitted in the preparation of the enzyme from bovine lens.

[5] = 10^-5 molar, enzyme from bovine lens

| inhibition at 10 µM (aldose reductase [4]; [5]) | inhibition at 1 µM (aldose reductase [4]; enzyme from bovine lens) | inhibition at 0.1 µM (aldose reductase [4]; enzyme from bovine lens) | SMILES | also measured |
| --- | --- | --- | --- | --- |
|  |  |  | CN(CC(=O)[O-])C(=O)c1cn(CC(=O)[O-])c2c(=O)ccccc2c1=O.[Na+].[Na+] | stability in the presence of acid [1]: decomposed in the presence of acid |
|  |  |  | O=C(O)CN1C(=O)c2cccc3cccc(c23)C1=O [1,3-Dioxo-1H-benz[de]isoquinoline-2(3H)-acetic acid] | aldose reductase inhibition (in words) (aldose reductase [2]): effective inhibitor of aldose reductase; usefulness for the treatment of diabetic complications (in words) [3]: useful for the treatment of diabetic complications such as diabetic cataracts, neuropathy, nephropathy and retinopathy |
|  |  |  | CN(CC(=O)[O-])C(=O)c1cn(CC(=O)[O-])c2c(=O)ccccc2c1=O.[Na+].[Na+] [Disodium Salt] | inhibition at 10 µM (aldose reductase [4]): 22% |
| 84% | 53% | 16% | O=C(O)Cn1cc(C(=O)O)c(=O)c2cc(O)ccc(=O)c21 [Example 4 (R^1 COOH, R^2 6-OH), 3-carboxy-4,9-dihydro-6-hydroxy-4,9-dioxo-1H-cyclohepta[b]pyridine-1-acetic acid] |  |
| 81% | 47% | 14% | O=C(O)Cn1cc(C(=O)O)c(=O)c2cccc(Br)c(=O)c21 [Example 4 (R^1 COOH, R^2 8-Br), 8-bromo-3-carboxy-4,9-dihydro-4,9-dioxo-1H-cyclohepta[b]pyridine-1-acetic acid] |  |
| 89% | 65% | 19% | O=C(O)Cn1cc(C(=O)O)c(=O)c2ccccc(=O)c21 [Example 4 (R^1 COOH, R^2 H), 3-Carboxy-4,9-dihydro-4,9-dioxo-1H-cyclohepta[b]pyridine-1-acetic Acid] |  |
|  |  |  | O=C1NC(=O)[C@@]2(CCOc3ccc(F)cc32)N1 [sorbinil, (S)-6-Fluoro-2,3-dihydrospiro(4H-1-benzopyran-4,4'-imidazolidine)-2',5'-dione] | aldose reductase inhibition (in words) (aldose reductase [2]): aldose reductase inhibiting properties |
